Patent publication US8673964B2, “Use of drug combinations for treating insulin resistance” (DiaMedica Inc., priority 2004, dated 2014)
Where “and” joins values, the source holds several entries; their conditions need not be identical. Equal entries are not always repeated.

Tests used:
[1] = system: Rats with Insulin Resistance Produced by Hepatic Denervation; assay: RIST in rats with insulin resistance produced by hepatic denervation; assay type: in vivo
Experimental: Methodology—All animals are 24 hour fasted. The animals are prepared using the standard RIST surgical preparation. The rats are anaesthetized with an intraperitoneal injection of sodium pentobarbital (65 mg kg-1; Somnotol, MTC Pharmaceuticals, Ont). Maintained anesthesia is achieved throughout the experiment by a continuous infusion of pentobarbital sodium (0.5 mg·ml-1 saline given at 50 μl·min-1) through a cannula in the jugular vein, supplemented with a 0.65 mg (0.01 ml) bolus injection when required. The rats are placed on a temperature-controlled surgical table (Harvard Apparatus, Kent, England) and rectal temperature is monitored and held at 37-37.5° C. Spontaneous respiration is allowed through a tracheal tube.
An arterial-venous shunt is established, as previous described (Lautt W W et al. Can J Physiol Pharmacol. 1998; 76 (12): 1080-6), for monitoring mean arterial blood pressure (MAP), blood glucose level and for drug delivery. Briefly, two catheters (polyethylene tubing PE60), one inserted into the right femoral artery and the other into the right femoral vein, are connected to the two openings of a three way vascular circuit consisting of a T tube connected with silicon tubing. The third opening of the circuit is connected to a pressure transducer for the recording of the shunt pressure which, when the silicon tubing toward the venous side of the circuit is closed by clamping, represented the systemic arterial blood pressure. Blood samples are taken from the arterial side of the shunt for the glucose measurement. […]
A control RIST is performed as previously described (Lautt W W et al. Can J Physiol Pharmacol. 1998; 76 (12): 1080-6). […] The baseline glucose levels are then determined by samples taken at 5-min intervals and continued until three successive stable determinations were made. […] After 1-min of insulin infusion, the first test glucose sample is determined and a variable glucose infusion (10%) is initiated. […]

sucrose fed rats = assay: Rapid insulin sensitivity test (RIST): meal induced insulin sensitization in control diet and sucrose fed rats; assay type: in vivo, Sprague Dawley rats; conditions: individual animals
Experimental: Animal Groups—Male Sprague Dawley rats having a starting weight of ≧220.0 g (Charles River, St. Constant, Quebec, Canada) were fed a normal rat chow diet and regular tap water, with and without the exposure to a 35% liquid sucrose solution for a 2 week period. Six groups of animals were established under the following treatments: […] (2) control diet, bethanechol (0.5 μg/kg ipv) and N-acetyl-L-cysteine (200 mg/kg) treatment (n=8); (3) control diet, bethanechol (0.5 μg/kg ipv) (n=5); (4) control diet, N-acetyl-L-cysteine (200 mg/kg) (n=4); (5) sucrose diet, saline treatment (n=4); (6) sucrose diet, bethanechol (0.5 μg/kg ipv) and N-acetyl-L-cysteine (200 mg/kg) treatment (n=5); (7) sucrose diet, bethanechol (0.5 μg/kg ipv) (n=6); and (8) sucrose diet, N-acetyl-L-cysteine (200 mg/kg) (n=3). Methodology—All animals are 24 hour fasted. The animals are prepared using the standard RIST surgical preparation. The rats are anaesthetized with an intraperitoneal injection of sodium pentobarbital (65 mg kg-1; Somnotol, MTC Pharmaceuticals, Ont). […] The rats are placed on a temperature-controlled surgical table (Harvard Apparatus, Kent, England) and rectal temperature is monitored and held at 37-37.5° C. Spontaneous respiration is allowed through a tracheal tube. An arterial-venous shunt is established, as previous described (Lautt W W et al. Can J Physiol Pharmacol. 1998; 76 (12): 1080-6), for monitoring mean arterial blood pressure (MAP), blood glucose level and for drug delivery. Briefly, two catheters (polyethylene tubing PE60), one inserted into the right femoral artery and the other into the right femoral vein, are connected to the two openings of a three way vascular circuit consisting of a T tube connected with silicon tubing. The third opening of the circuit is connected to a pressure transducer for the recording of the shunt pressure which, when the silicon tubing toward the venous side of the circuit is closed by clamping, represented the systemic arterial blood pressure. Blood samples are taken from the arterial side of the shunt for the glucose measurement. Flowing blood within the shunt assures the real time measurement of the blood glucose concentration, which is essential for the euglycemic clamp test as mentioned below. An infusion line is inserted into the venous side of the loop for drug delivery. Another infusion line connected to the jugular vein is established for glucose infusion. Animals are heparinized (100 IU·kg-1) to prevent clotting in the vascular loop. […] A control RIST is performed as previously described (Lautt W W et al. Can J Physiol Pharmacol. 1998; 76 (12): 1080-6). […] The baseline glucose levels are then determined by samples taken at 5-min intervals and continued until three successive stable determinations were made. […]

## [NH-]c1c[n+](N2CCOCC2)no1 [SIN-1, 3-morpholinosyndnonimine]
[1]; SIN-1 infusion into the portal vein 10.0 mg/kg/min for 2 minutes
  RIST index after surgical hepatic denervation: reversal of the insulin resistance

## CC(C[N+](C)(C)C)OC(N)=O (stereo not shown) [Bethanechol, bethanechol]
[1]; bethanechol infusion into the portal vein 2.5 mg/kg/min from 10 minutes prior to insulin, entire test period
  RIST index after surgical hepatic denervation: reversal of the insulin resistance
Sucrose fed rats; Control Diet, bethanechol 0.5 μg/kg ipv alone, listed as BCH
  percent potentation of RIST as compared to control: 9.06% and 15.19% and 35.62% and 33.87% and 60.33%
Sucrose fed rats; Sucrose Diet, bethanechol 0.5 μg/kg ipv alone, listed as BCH
  percent potentation of RIST as compared to control: 45.59% and 13.22% and −13.22% and 14.22% and 7.71% and 22.36%

## CC(=O)N[C@@H](CS)C(=O)O [NAC, N-acetyl-L-cysteine]
[1]; NAC (200 mg/mL) infusion into the portal vein 0.1 mL/min for 2 minutes
  RIST index after surgical hepatic denervation: reversal of the insulin resistance
Sucrose fed rats; Control Diet, N-acetyl-L-cysteine 200 mg/kg alone
  percent potentation of RIST as compared to control: 33.5% and 27.39% and 57.25% and 1.89%
Sucrose fed rats; Sucrose Diet, N-acetyl-L-cysteine 200 mg/kg alone
  percent potentation of RIST as compared to control: 3% and −13.85% and −2.63%
